Measured values: patent US20230102309A1, “TYROSINE KINASE INHIBITOR CONJUGATES” (Ascendis Pharma Oncology Division A/S, priority 2019, published 2023)
Marks after values point to notes of the source that are not given here.

Columns and labels:
MC-38/C11G tumor cells = experiment: Anti-tumor efficacy within the in vivo PK study; design: species or system C57BL/6 mice; settings: Axitinib 3 mg/kg oral twice a day for 14 days, 9c single IT 50 μL
Protocol: (§1) The study was conducted in female C57BL/6 mice with an age of 6-8 weeks at the day of tumor inoculation. Mice were implanted with 1×10^6 of MC-38/C11G tumor cells into the right flank.
(§2) When tumors were grown to a mean tumor volume of ˜94 mm^3, mice were randomized into treatment cohorts (day 0). Following randomization, animals received either a single intratumoral injection of hydrogel 1 or hydrogel 9c as a single intratumoral dose in an injection volume of 50 μL, or with orally administered Axitinib suspended in 0.5% carboxymethylcellulose at 3 mg/kg in a 100 μl dose volume twice a day for 14 days. Hydrogels were administered as suspensions in pH 5.5 20 mM sodium succinate, 77 g/l trehalose dihydrate, 0.2% Pluronic F-68 buffer.
(§3) Following treatment initiation, anti-tumor efficacy was assessed by determination of tumor volumes at various time points from tumor size measurements with a caliper. Tumor volumes were calculated according to the formula: […]
(§4) where L is the length of the tumor and W the width (both in mm).

MC-38 tumor cells = experiment: In vivo anti-tumor efficacy and combination efficacy with anti-PD1, bilateral MC-38 tumors; design: species or system C57BL/6 mice; settings: Axitinib 25 mg/kg oral twice daily, antibodies 10 mg/kg IP; for Absolute tumor volume of left flank tumors, mean: left (not injected) tumor, hydrogels 50 μL IT into right tumor once Day 0 (7a 378, 8a 136, 8b 47 μg eq. axitinib); for Absolute tumor volume of right flank tumors, mean: right (IT-treated) tumor, hydrogels 50 μL IT once Day 0 (7a 378, 8a 136, 8b 47 μg eq. axitinib)
Protocol: The study was conducted in female C57BL/6 mice with an age of 6-8 weeks at the day of tumor inoculation. Mice were implanted with 1×10^6 MC-38 tumor cells into the left and right flanks. When right flank tumors were grown to a mean tumor volume of ˜104 mm^3, mice were randomized into treatment cohorts. For animals that received intratumoral injections, the right tumor was selected for treatment.
as §3, §4

[1] = Axitinib concentration in plasma samples; type: in vivo, C57BL/6 mice; settings: female, C57BL/6, mouse, 9c single IT 50 μL (n=4), Axitinib 3 mg/kg oral (n=3), LLOQ 50.0 pg/mL
Protocol: as §1, §2
After 0.5, 1, 4 12, and 24 hours following treatment, 4 mice from the hydrogel 9c and Axitinib treated groups were sacrificed and terminal blood was collected in EDTA. Plasma was prepared after blood withdrawal. After 72 hours following treatment, 4 mice from the hydrogel 9c treated group were sacrificed and tumors were excised and snap frozen. Plasma samples underwent further processing by solid-phase extraction prior to Axitinib concentration determination by LCMS/MS.
All solvents (UPLC grade) as well as formic acid (ULC/MS quality) were purchased from Biosolve BV, Valkenswaard, The Netherlands. Axitinib concentrations in plasma were determined after solid phase extraction via liquid chromatography separation and detection by mass spectrometry (LCMS). As internal standard [^13C, D3]-axitinib was used. LCMS analysis was carried out by using an Agilent Infinity ultra high performance liquid chromatography (UHPLC) system coupled to an AbSciex 6500+ QTrap triple quadrupole mass spectrometer (QQQ) via an ESI probe. Chromatography was performed on a C18 analytical UHPLC column (YMC-Triart, 2.1×50 mm, 1.9 μm particle). Water containing 0.1% formic acid (v/v) was used as mobile phase A and acetonitrile with 0.1% formic acid as mobile phase B. The gradient system comprised a linear increase from 15% B to 30% B in 2.7 min. […]

CNC(=O)c1ccccc1Sc1ccc2c(/C=C/c3ccccn3)n[nH]c2c1 [Axitinib, axitinib]
Absolute tumor volume, mean (MC-38/C11G tumor cells; day 0 post-treatment): 93.862 mm^3
Absolute tumor volume, mean (MC-38/C11G tumor cells; day 4 post-treatment): 243.647 mm^3
Absolute tumor volume, mean (MC-38/C11G tumor cells; day 7 post-treatment): 418.787 mm^3
Absolute tumor volume, mean (MC-38/C11G tumor cells; day 11 post-treatment): 710.390 mm^3
Absolute tumor volume, mean (MC-38/C11G tumor cells; day 14 post-treatment): 977.619* mm^3
Absolute tumor volume of left flank tumors, mean (MC-38 tumor cells; day 0 post-treatment): 112.18 mm^3
Absolute tumor volume of right flank tumors, mean (MC-38 tumor cells; day 0 post-treatment): 104.22 mm^3
Absolute tumor volume of left flank tumors, mean (MC-38 tumor cells; day 3 post-treatment): 321.44 mm^3
Absolute tumor volume of right flank tumors, mean (MC-38 tumor cells; day 3 post-treatment): 304.55 mm^3
Absolute tumor volume of left flank tumors, mean (MC-38 tumor cells; day 5 post-treatment): 432.85 mm^3
Absolute tumor volume of right flank tumors, mean (MC-38 tumor cells; day 5 post-treatment): 419.99 mm^3
Absolute tumor volume of left flank tumors, mean (MC-38 tumor cells; day 7 post-treatment): 601.11 mm^3
Absolute tumor volume of right flank tumors, mean (MC-38 tumor cells; day 7 post-treatment): 543.06 mm^3
Absolute tumor volume of left flank tumors, mean (MC-38 tumor cells; day 10 post-treatment): 741.81† mm^3
Absolute tumor volume of right flank tumors, mean (MC-38 tumor cells; day 10 post-treatment): 763.99 mm^3
Absolute tumor volume of left flank tumors, mean (MC-38 tumor cells; day 12 post-treatment): 967.56†, †† mm^3
Absolute tumor volume of right flank tumors, mean (MC-38 tumor cells; day 12 post-treatment): 994.16† mm^3
concentration at 0.5 h ([1]; 0.5 h): 101 ng/mL
concentration at 1 h ([1]; 1 h): 76.8 ng/mL
concentration at 12 h ([1]; 12 h): 0.797 ng/mL
